# “And” between values parts separate entries of the source, which are not always exact repeats. Equal values may be shown once.
# How the values were obtained:
# Format in all cases: cell-based, human
# LNCaP-CDK7-D97N cells = experiment: Growth assay (SRB), LNCaP CDK7-D97N knock-in; details: LNCaP CDK7 D99N
# Description: (§1) To determine the IC50 of drug treatments on growth, cells were seeded in 96-well culture plates. Two days after seeding, the cells were treated with increasing concentrations of drugs and incubated for 4 days. Cell number was determined using the SRB assay (Skehan et al, [1990]), and IC50 values were calculated using non-linear regression curve fitting in GraphPad Prism v10. For all other growth experiments, cells were seeded into 96-well plates, and appropriate drugs were added 2 days after seeding. Cells were then incubated in an IncuCyte Zoom live-cell imager, with cell confluency measured every 6 h. Cell doubling times were determined by non-linear curve fitting (exponential growth equation) in GraphPad Prism v10.
# (§2) Alt-R^TM S.p. Cas9 nuclease V3, Alt-R CRISPR-Cas9 crRNA, TracrRNA and the donor templates were obtained from Integrated DNA Technologies. […] Cells were treated with 0.7 µM of Alt-R HDR Enhancer V2 to improve HRD efficiency. Sequences of the CRISPRs in the crRNA and the donor templates are shown in the Reagents and tools table. Donor templates were designed to include non-coding substitutions to aid genome DNA PCR for identifying knock-in events and to facilitate cloning; these substitutions are noted in the Reagents and tools table.
# MCF7-CDK7-D97N cells = experiment: Growth assay (SRB), MCF7 CDK7-D97N knock-in; details: for % Growth: MCF7 CDK7 D99N, biological reps
# Description: as §1, §2
# 22Rv1-CDK7-D97N cells = experiment: Growth assay (SRB), 22Rv1 CDK7-D97N knock-in pool; details: 22Rv1 CDK7 D99N
# Description: as §1, §2
# 22Rv1-SamR cells = experiment: Growth assay (SRB), Samuraciclib-resistant 22Rv1; details: for % Growth: 22Rv1 SamR, 4 days, biological reps
# Description: as §1
# LNCaP cells = experiment: Growth assay (SRB), LNCaP
# Description: as §1
structure (smiles),measurement,setting,value
CC(C)c1cnn2c(NCc3ccccc3-n3cccn3)nc(OC3CCCNC3)nc12 (stereo not drawn) [LDC4297],% Growth,LNCaP-CDK7-D97N cells; Log10 Conc. (nM) 0.09,106.48% and 87.66%
same,% Growth,LNCaP-CDK7-D97N cells; Log10 Conc. (nM) 0.69,87.77% and 86.95%
same,% Growth,LNCaP-CDK7-D97N cells; Log10 Conc. (nM) 1.29,78.55% and 76.66%
same,% Growth,LNCaP-CDK7-D97N cells; Log10 Conc. (nM) 1.89,68.25% and 64.95%
same,% Growth,LNCaP-CDK7-D97N cells; Log10 Conc. (nM) 2.49,52.79% and 47.15%
same,% Growth,LNCaP-CDK7-D97N cells; Log10 Conc. (nM) 3.10,25.80% and 16.35%
same,% Growth,LNCaP-CDK7-D97N cells; Log10 Conc. (nM) 3.70,4.77% and -4.61%
same,% Growth,LNCaP-CDK7-D97N cells; Log10 Conc. (nM) 4.30,-8.16% and -14.41%
same,% Growth,LNCaP-CDK7-D97N cells; Log10 Conc. (nM) -0.52,106.84% and 93.83%
same,Resistance (Fold),MCF7-CDK7-D97N cells; MCF7-CDK7-D97N vs MCF7 WT,38.8 fold
same,IC50,"MCF7-CDK7-D97N cells; MCF7-CDK7-D97N, 4 days, SRB",284 nM
same,% Growth,"MCF7-CDK7-D97N cells; Log10 Conc. (nM) 0.09, 4 days",97.54% and 102.97% and 111.53%
same,% Growth,"MCF7-CDK7-D97N cells; Log10 Conc. (nM) 0.69, 4 days",89.88% and 95.95% and 106.23%
same,% Growth,"MCF7-CDK7-D97N cells; Log10 Conc. (nM) 1.29, 4 days",86.58% and 89.18% and 107.98%
same,% Growth,"MCF7-CDK7-D97N cells; Log10 Conc. (nM) 1.89, 4 days",78.14% and 75.55% and 98.88%
same,% Growth,"MCF7-CDK7-D97N cells; Log10 Conc. (nM) 2.49, 4 days",36.43% and 41.92% and 46.72%
same,% Growth,"MCF7-CDK7-D97N cells; Log10 Conc. (nM) 3.10, 4 days",15.57% and 25.31% and 26.65%
same,% Growth,"MCF7-CDK7-D97N cells; Log10 Conc. (nM) -0.52, 4 days",94.29% and 106.05% and 120.50%
same,% Growth,22Rv1-CDK7-D97N cells; Log10 Conc. (nM) 0.09,99.08% and 97.65%
same,% Growth,22Rv1-CDK7-D97N cells; Log10 Conc. (nM) 0.69,98.24% and 92.35%
same,% Growth,22Rv1-CDK7-D97N cells; Log10 Conc. (nM) 1.29,97.25% and 79.61%
same,% Growth,22Rv1-CDK7-D97N cells; Log10 Conc. (nM) 2.49,79.12% and 58.88%
same,% Growth,22Rv1-CDK7-D97N cells; Log10 Conc. (nM) 3.10,40.19% and 24.40%
same,% Growth,22Rv1-CDK7-D97N cells; Log10 Conc. (nM) 4.30,-8.93% and -12.96%
same,% Growth,22Rv1-CDK7-D97N cells; Log10 Conc. (nM) -0.52,101.69% and 97.12%
same,"Resistance (Fold), fold increase in IC50 of 22Rv1-SamR relative to 22Rv1",22Rv1-SamR cells; 22Rv1-SamR vs 22Rv1,45 fold
same,% Growth,22Rv1-SamR cells; Log10 Conc. (nM) 0.09,97.61% and 104.31%
same,% Growth,22Rv1-SamR cells; Log10 Conc. (nM) 0.69,95.33% and 95.56%
same,% Growth,22Rv1-SamR cells; Log10 Conc. (nM) 1.29,91.02% and 93.49%
same,% Growth,22Rv1-SamR cells; Log10 Conc. (nM) 1.89,85.93% and 89.36%
same,% Growth,22Rv1-SamR cells; Log10 Conc. (nM) 2.49,74.46% and 80.17%
same,% Growth,22Rv1-SamR cells; Log10 Conc. (nM) 3.10,45.54% and 51.37%
same,% Growth,22Rv1-SamR cells; Log10 Conc. (nM) 3.70,16.52% and 21.74%
same,% Growth,22Rv1-SamR cells; Log10 Conc. (nM) 4.30,-6.89% and -7.33%
same,% Growth,22Rv1-SamR cells; Log10 Conc. (nM) -0.52,95.69% and 97.10%
same,% Growth,LNCaP cells; Log10 Conc. (nM) 0.09,103.68% and 97.62%
same,% Growth,LNCaP cells; Log10 Conc. (nM) 0.69,77.76% and 65.52%
same,% Growth,LNCaP cells; Log10 Conc. (nM) 1.29,48.12% and 34.31%
same,% Growth,LNCaP cells; Log10 Conc. (nM) 3.10,4.14% and -5.07%
same,% Growth,LNCaP cells; Log10 Conc. (nM) 3.70,-12.69% and -19.92%
same,% Growth,LNCaP cells; Log10 Conc. (nM) 4.30,-12.08% and -21.22%
same,% Growth,LNCaP cells; Log10 Conc. (nM) -0.52,92.16% and 87.19%
